Source: US9464064B2, “HCV helicase inhibitors and methods of use thereof” (University of Kansas, priority 2011, dated 2016)

Biological target: T1, HCV NS3 helicase NS3h_1b(con1) (Hepatitis C virus genotype 1b, UniProt Q9WMX2)
T1 construct: truncated C-terminally His-tagged NS3 proteins lacking the N-terminal protease, called NS3h; His-tag (C); made in house
Assay: MBHA screen of NCI mechanistic set library at 20 μM (percent inhibition, compound interference)
Type: biochemical
Conditions: compounds at 20 μM; for Inh. (%) (Inhibition): calculated from Equation 1
Method in brief: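 Molecular beacon-based DNA unwinding assay; compounds screened at 20 μM in triplicate, with DMSO-only negative and 500 nM dT20 positive controls. Fluorescence (ex 643/em 670 nm) was read before and 30 min after adding ATP to 1 mM. Percent inhibition came from the change relative to DMSO controls; interference from pre-ATP fluorescence versus DMSO controls.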

[1] = MBHA with DNA substrate, assay interference calculated with Equation 2
[2] = assay interference calculated with Equation 2 (fluorescence vs DMSO-only controls before ATP)

T1 sequence (Q9WMX2 1192-1657): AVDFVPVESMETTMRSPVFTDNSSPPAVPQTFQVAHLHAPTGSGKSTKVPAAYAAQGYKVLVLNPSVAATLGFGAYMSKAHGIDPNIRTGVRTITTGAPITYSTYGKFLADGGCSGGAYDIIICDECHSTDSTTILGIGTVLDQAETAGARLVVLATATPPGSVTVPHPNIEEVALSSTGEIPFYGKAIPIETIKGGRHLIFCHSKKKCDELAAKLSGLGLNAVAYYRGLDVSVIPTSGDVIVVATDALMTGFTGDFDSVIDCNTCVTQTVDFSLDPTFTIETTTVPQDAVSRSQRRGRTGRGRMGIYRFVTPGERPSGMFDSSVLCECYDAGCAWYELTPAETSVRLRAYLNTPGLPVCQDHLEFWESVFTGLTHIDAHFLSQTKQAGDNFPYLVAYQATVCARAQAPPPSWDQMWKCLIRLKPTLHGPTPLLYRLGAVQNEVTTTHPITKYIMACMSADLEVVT

Row | Structure (SMILES) | Int.* (Ratio) (Interference) [1] | Inh. (%) (Inhibition) (MBHA with DNA substrate) | Inh. (%) (Inhibition) (MBHA with a DNA substrate) | Int.* (Ratio) (Interference) [2]
1 | CCN(CC)CCN1C(=O)c2c(c3c4cccc(Cl)c4n(C4OC(CO)C(OC)C(O)C4O)c3c3[nH]c4c(Cl)cccc4c23)C1=O (stereo not shown) [Compound 640199] | 0.70 | 76.4 |  | 
2 | Cc1nc(Nc2ccc(Cl)c(Cl)c2)sc1C(/C=C/c1ccc2c(c1)OCO2)=N/Nc1ccc([N+](=O)[O-])cc1[N+](=O)[O-] [Compound 640335] |  |  | −24.2 | 0.91
3 | Cc1ccc(Nc2nc(C)c(C(/C=C/c3ccc(/C=C/C(=N\NC(=O)C[n+]4ccccc4)c4sc(Nc5ccc(C)cc5[N+](=O)[O-])nc4C)cc3)=N/NC(=O)C[n+]3ccccc3)s2)c([N+](=O)[O-])c1.Cl [Compound 640342] |  |  | −22.4 | 0.95
4 | CN(C)C[C@H]1CC[C@@H](CN(C)C)C1=O.Cl.Cl [Compound 640391] |  |  | 10.6 | 1.09
5 | OCCOc1ccc(-c2cc(-c3ccccn3)nc(-c3ccccn3)c2)cc1 [Compound 640499] |  |  | −25.9 | 0.91
6 | CCNCCCCNCCCCNCCCCNCCCCNCC.Cl [Compound 640506] | 0.91 | 71.1 |  | 
7 | Cc1nc(-c2cccnc2)sc1C(=O)/C=C/c1ccc(Cl)cc1Cl [Compound 640580] |  |  | −32.9 | 1.09
8 | Cc1nc(-n2nc(-c3ccccc3)cc2-c2ccccc2)sc1C(=O)/C=C/c1ccc(Cl)c(Cl)c1 [Compound 640584] |  |  | 9.6 | 0.90
9 | CC1=CC(C)(C)N=C2SC(c3ccc(N)cc3)=NN12 [Compound 640624] |  |  | −4.2 | 1.11
10 | S=C(Nc1ccccc1)N(/N=C/C=C/c1ccccc1)c1nnc(-c2ccccc2)c(-c2ccccc2)n1 [Compound 640637] |  |  | −3.0 | 0.86
11 | BrC(/C=N/Nc1nnc(-c2ccccc2)c(-c2ccccc2)n1)C(Br)c1ccccc1 (stereo not shown) [Compound 640638] | 0.93 | −7.0 |  | 
12 | N#Cc1ccccc1NC(=O)C(=O)C(C(=O)c1ccccc1F)C1OC(=O)c2ccccc21 (stereo not shown) [Compound 640974] |  |  | −33.1 | 0.87
13 | Cc1ccc(C)c(NC(=O)C(=O)C(C(=O)c2ccc3ccccc3c2)C2OC(=O)c3ccccc32)c1 (stereo not shown) [Compound 640985] | 0.97 | −10.5 |  | 
14 | Cc1ccccc1NC(=O)C(=O)C(C(=O)c1ccccc1F)C1OC(=O)c2ccccc21 (stereo not shown) [Compound 641228] |  |  | −39.7 | 0.92
15 | O=C(NC1=C(Cl)C(=O)c2ccccc2C1=O)C(=O)C(C(=O)c1ccc2ccccc2c1)C1OC(=O)c2ccccc21 (stereo not shown) [Compound 641233] | 0.91 | −13.1 |  | 
16 | COC(=O)c1ccccc1NC(=O)C(=O)CC(=O)c1ccccc1NC1=CC(=O)C(=O)c2ccccc21 [Compound 641240] | 0.88 | −14.8 |  | 
17 | O=C(CC(=O)c1ccccc1NC1=Cc2ccccc2C(=O)C1=O)C(=O)NC1=C(Cl)C(=O)c2ccccc2C1=O [Compound 641245] | 0.89 | −13.7 |  | 
18 | O=C1C=C(Nc2ccccc2C(=O)CC(=O)C(=O)Nc2ccc(Cl)c(Cl)c2)c2ccccc2C1=O [Compound 641250] | 0.95 | −13.6 |  | 
19 | O=C1C=C(Nc2ccccc2C(=O)CC(=O)C(=O)Nc2ccc(Cl)cc2)c2ccccc2C1=O [Compound 641253] |  |  | −34.2 | 0.95
20 | COc1ccc(/C(=N/O)C(c2ccc(OC)cc2)C2C(=O)Oc3ccccc32)cc1 (stereo not shown) [Compound 641607] | 1.03 | 29.4 |  | 
21 | CCc1cccc(C(C)C)c1NC(=O)/C(=N\NC(N)=O)C(C(=O)OC)c1cnc2ccccc2n1 (stereo not shown) [Compound 642033] | 0.99 | 1.4 |  | 
22 | COC(=O)C(=O)C(C(=O)C(=O)Nc1cc(C)ccc1C)c1nc2ccc(C(=O)c3ccccc3)cc2[nH]c1=O (stereo not shown) [Compound 642040] |  |  | −3.2 | 0.90
23 | Cc1nc(C(N)=S)sc1C(=O)CC(=O)C(=O)Nc1c(C(C)C)cccc1C(C)C [Compound 642048] | 0.99 | −11.3 |  | 
24 | O=C(c1nc2ccc(Cl)cc2[nH]c1=O)C(O)c1ccc2c(c1)OCO2 (stereo not shown) [Compound 642649] | 1.05 | −11.2 |  | 
25 | COc1ccc(/C=C\c2cc(OC)c(OC)c(OC)c2)cc1OP(=O)(O)O.N [Compound 643001] |  |  | −19.4 | 0.96
26 | N#CC(C#N)=Cc1ccc(Oc2ccccc2)cc1 [Compound 643028] | 0.96 | −13.0 |  | 
27 | CC(C)OP(=O)(OC(C)C)C(N(C)C)P(=O)(OC(C)C)OC(C)C.[Cl][Sn]([Cl])([Cl])[c]1ccccc1 [Compound 645567] | 1.04 | 2.4 |  | 

Further lines, results first:

Row | Int.* (Ratio) (Interference) [1] | Inh. (%) (Inhibition) (MBHA with DNA substrate) | Inh. (%) (Inhibition) (MBHA with a DNA substrate) | Int.* (Ratio) (Interference) [2] | Structure (SMILES)
28 | 1.08 | −0.1 |  |  | N#CC(C#N)=Cc1cccc(Oc2ccccc2)c1 [Compound 643031]
29 |  |  | −20.3 | 0.98 | O=C1c2ccccc2C(=O)C1C(c1ccc([N+](=O)[O-])cc1)C1C(=O)c2ccccc2C1=O [Compound 643148]
30 | 1.02 | −2.2 |  |  | CN(C)c1ccc(/C=C2\CCc3ccccc3C2=O)cc1Br [Compound 643162]
31 | 1.09 | −12.3 |  |  | CN(C)c1ccc(/C=C2\Cc3ccccc3C2=O)cc1Br [Compound 643163]
32 | 0.86 | 14.9 |  |  | CN(C)c1ccc(/C=C/C(=O)c2ccccc2)cc1Br [Compound 643164]
33 | 1.07 | −9.6 |  |  | COc1ccc(/C=C2\Cc3ccccc3C2=O)cc1OC [Compound 643174]
34 | 0.93 | −17.5 |  |  | COc1ccc(/C=C2\CCc3ccccc3C2=O)cc1OC [Compound 643175]
35 |  |  | −21.0 | 1.04 | N#C/C(=C\c1ccc2ccccc2c1)C(=O)c1ccccc1 [Compound 643186]
36 |  |  | −20.4 | 0.89 | CN(C)c1ccc(/C=C/C(=O)[O-])cc1.CN(C)c1ccc(/C=C/C(=O)[O-])cc1.[Cu+2] [Compound 643351]
37 | 0.90 | 14.6 |  |  | CCOC(=O)/C(=C/c1ccc(N(C)C)cc1)N(CC)CC [Compound 643774]
38 |  |  | −5.7 | 0.91 | COc1ccc(/C=C/c2cc(OC)c(OC)c(OC)c2)cc1OP(=O)(O)O [Compound 643812]
39 |  |  | −3.8 | 0.89 | CCCCCCCCCCCCCCCCCCN(C)C(COC)COP(=O)([O-])OCC[N+](C)(C)C (stereo not shown) [Compound 643826]
40 | 0.88 | −1.3 |  |  | CCCC/C=C/C=C/C=C/CCCCCCCC(=O)OCC(COC(=O)CCCCCCC/C=C/C1C=CC(CCCC)C(C(=O)O)C1C(=O)O)OC(=O)CCCCCCC/C=C/C=C/C=C/CCCC.OCCNCO (stereo not shown) [Compound 643834]
41 |  |  | −21.3 | 1.06 | CCOC(=O)C1=C(C)NC(=S)NC1c1ccccc1 (stereo not shown) [Compound 643910]
42 | 0.94 | 17.3 |  |  | Cc1ccccc1NC(=O)C(=O)C(c1cnc2ccc([N+](=O)[O-])cc2n1)[N+](=O)[O-] (stereo not shown) [Compound 644735]
43 | 0.96 | −17.5 |  |  | O=C(Nc1cccc(C(F)(F)F)c1)C(=O)C(C(=O)c1ccc(Cl)c(Cl)c1)C1OC(=O)c2ccccc21 (stereo not shown) [Compound 644794]
44 | 0.96 | −18.4 |  |  | Clc1ccc(-c2c(C3=NCCCN3)nnn2-c2ccc(Cl)cc2)cc1 [Compound 645033]
